Assay: Antioxidant activity using the free radical source DPPH (absorbance at 517 nm)
Assay type: biochemical
Conditions: for Antioxidant activity RC50: DPPH 0.4 mM, room temperature, 30 minutes, absorbance 517 nm, concentration giving 50% of control absorbance
Description: The antioxidant activity of the Rosa multiflora extract of the present invention obtained according to the above method was measured according to the method for measuring antioxidant activity (The Korean Society of Food and Nutrition, Handbook for Experiments in Food and Nutrition, 651p, 2000; Blois, M. S., Nature, 4617:1198, 1958).
In addition, active fractions showing antioxidant activity can be obtained by fractionating and purifying the obtained Rosa multiflora extracts by chromatography. It is preferable to carry out silica gel column chromatography once or twice. Where active fractions obtained by silica gel column chromatography are further subjected to ODS column chromatography, more highly purified active fractions can be obtained. A mixture of chloroform and methanol or a mixture of methanol and distilled water can be used as a developing solvent at the time of chromatography. A flow rate of the developing solvent is generally from 5 Ml/hr to 1000 Ml/hr and preferably from 20 Ml/hr to 500 Ml/hr. The fractions eluted by chromatography are collected in flasks in the amount of 5 Ml to 100 Ml respectively. Active fractions showing antioxidant activity can be obtained by measuring antioxidant activities of the collected fractions. Antioxidant activity can be measured by a known method (The Korean Society of Food and Nutrition, Handbook for Experiments in Food and Nutrition, 651p, 2000; Blois, M. S., Nature, 4617:1198, 1958).
Antioxidant activity was measured according to the method for measuring antioxidant activity using a free radical source, 1,1-diphenyl-2-picrylhydrazyl (DPPH) (The Korean Society of Food and Nutrition, Handbook for Experiments in Food and Nutrition, 651p, 2000; Blois, M. S., Nature, 4617: 1198, 1958). […] 0.8 Ml of DPPH (0.4 mM) solution and 3 Ml of ethanol were added, the reaction was carried out at the room temperature for 30 minutes and absorbance was measured at 517 nm. Antioxidant activity was expressed as a RC50 value. The RC50 represents the concentration of antioxidant (μg/Ml) required to achieve an absorbance equal to 50% of the absorbance of a control in which no antioxidants are contained.

Compound	Antioxidant activity RC50	Antioxidant activity relative to α-tocopherol (times stronger) (compared with the natural antioxidant α-tocopherol, DPPH RC50)	Antioxidant activity relative to BHA (times stronger) (compared with the synthetic antioxidant BHA, DPPH RC50)
Cc1c(C)c2c(c(C)c1O)CC[C@@](C)(CCC[C@H](C)CCC[C@H](C)CCCC(C)C)O2 [α-tocopherol, reference compound]	13.0 µg/mL	–	–
Oc1cc(O)c2c(c1)O[C@H](c1ccc(O)c(O)c1)[C@@H](O)[C@@H]2c1c(O)cc(O)c2c1O[C@H](c1ccc(O)c(O)c1)[C@@H](O)C2 [Procyanidin B3, catechin-(4α→8)-catechin]	3.4 µg/mL	3.8 times	2.7 times
COc1ccc(O)c(C(C)(C)C)c1 [BHA, butylated hydroxy anisole, reference compound]	9.2 µg/mL	–	–

— patent US6858235B2, “Antioxidant composition and method of preparation thereof” (Eromlife Co. Ltd., priority 2002, dated 2005)
